Experimental findings from patent US12577536B2, “Method for isolating ureteric bud tip cells” (KYOTO UNIVERSITY, priority 2019, dated 2026) are described below.

What all share (format): cell-based, human
Assay [1] deals with dissociated tip colony cells. Put plainly: Collecting duct progenitor induction, 2D culture with immunostaining. As to the method: For 2D cultures, day 7 tip cell colonies detached from hydrogel were dissociated into single cells by pipetting after treatment with Accutase for 3 min at 37° C. The single cells were resuspended with Essential 6 medium containing 1 μM IWR-1 (Tocris) and 0.5 μL/cm^2 iMatrix-511 silk with or without 1 μM A83-01 and seeded at a density of 4×10^4 cells/well in 96-well plates. For 3D cultures, day 14 reconstituted iUB organoids were treated with Essential 6 medium containing 1 μM IWR-1 and 1 μM A83-01 for 14 days.
Immunostaining analysis was performed as described previously with some modifications (Mae, SI. & Ryosaka, M. et al. Biochem Biophys Res Commun. 495, 954-61 (2018)). For 2D cultures, the cells were fixed with 4% paraformaldehyde (PFA)/PBS for 20 min at 4° C. After washing with PBS twice, the cells were blocked with 18 normal donkey serum (MERCK) and 3% bovine serum albumin (BSA; Nacalai Tesque)/PBST (PBS/0.25% Triton X-100, Nacalai Tesque) for 1 h at room temperature. Primary antibodies were diluted with blocking solution at 1:500 and incubated with the samples overnight at 4° C. After washing with PBST twice, secondary antibodies diluted with blocking solution at 1:500 were incubated for 1 h at room temperature.

Another assay concerns tip cell colonies. The experiment in a line: Reconstitution of iUB organoids from tip cell colonies. The following applies: organoid medium with CHIR99021. As to the method: Hydrogel was dissolved with Cell Recovery Solution (BD Biosciences) for 1 h at 4° C. to detach day 7 tip cell colonies. After washing with additional Cell Recovery Solution, the tip cell colonies were centrifuged at 500 g for 5 min at room temperature. Essential 6 medium containing 0.1 μM LDN193189, 100 ng/ml GDNF, 0.1 μM TTNPB, 200 ng/ml FGF8, 1 μM CHIR99021 or 10% Afamin/Wnt3a conditioned medium (MBL), 200 ng/ml R-spondin 1 (R&D systems), 50 ng/ml EGF, 200 ng/ml FGF1 and 10% Matrigel was applied to the tube including tip cell colonies. After pipetting gently with a wide-mouth micropipette (BMBio) not to break colonies, the suspension was distributed to low-attachment 35 mm dish (Sumitomo Bakelite) at 2 mL/dish. The medium was refreshed every 2 days. On day 4, each colony was placed onto one well of low-attachment 96-well plates in the same medium. After an additional 6 days, the tip region was separated from the reconstituted iUB organoid and treated with the same medium for 35 days.

Assay [2] has as its system ND aggregates / iUB organoids. The experiment in a line: iUB organoid induction from ND aggregates. The following applies: 50 ng/ml EGF and 200 ng/ml FGF1 added together to organoid medium. As to the method:
Unwanted cells were removed from the ND aggregates by pipetting (Mae, SI. & Ryosaka, M. et al. Biochem Biophys Res Commun. 495, 954-61 (2018)). The ND aggregates were treated with the same medium and factors containing 2% Matrigel for 6 days to constitute iUB organoids with epithelial polarity and tubular lumens. 50 ng/ml EGF (R&D Systems) and 200 ng/ml FGF1 (R&D Systems) were added to enhance budding. The tips were mechanically separated from iUB organoids and cultured in the same medium and factors containing 2% Matrigel for 6 to 14 days to reconstitute branching iUB organoids. The tips separated from the reconstituted iUB organoids were treated with the same medium and factors to repeatedly reconstitute iUB organoids.

Take `Cc1cccc(-c2nn(C(=S)Nc3ccccc3)cc2-c2ccnc3ccccc23)n1` [A83-01, 3-(6-Methyl-2-pyridinyl)-N-phenyl-4-(4-quinolinyl)-1H-pyrazole-1-carbothioamide]: the “induction rates of AQP2-expressing cells” value in assay [1] (1 μM A83-01 in combination with 1 μM IWR-1, day 7 of 2D culture) is “improved the induction rates of these cells”.

Regarding `Cc1c[nH]c(-c2cnc(NCCNc3ccc(C#N)cn3)nc2-c2ccc(Cl)cc2Cl)n1` [CHIR99021, 6-[2-[4-(2,4-Dichlorophenyl)-5-(4-methyl-1H-imidazole-2-yl)pyrimidine-2-ylamino]ethylamino]pyridine-3-carbonitrile], in the assay with tip cell colonies, the “reconstitution of iUB organoids from tip cell colonies” value is recorded as “only observed with tip cell colonies derived from 585A1 iPS cells”.

With `O=C(Nc1cccc2cccnc12)c1ccc(N2C(=O)[C@@H]3[C@H](C2=O)[C@@H]2C=C[C@H]3C2)cc1` [IWR-1], in assay [1] (1 μM IWR-1, day 7 of 2D culture), the “differentiation into AQP2-expressing, CAII-negative cells” value was “facilitated the differentiation of dissociated tip colony cells into the cells expressing a collecting duct principal cell marker, Aquaporin (AQP) 2”.

As for “EGF: protein called Epidermal Growth Factor (R&D systems) (NSDSECPLSHDGYCLHDGVCMYIEALDKYACNCVVGYIGERCQYRDLKWWELR; Epidermal growth factor; UniProt P01133 971-1023, looked up)”, the “budding of iUB organoids” value in assay [2] is listed as “promoted budding”.

Take FGF1: fibroblast growth factor: the “budding of iUB organoids” value in assay [2] was “promoted budding”.
